# Columns and labels:
# Test in all cases: KINOMEscan
# Format in all cases: binding
# Details in all cases: 1 μM of compound 4; read-out: POC
# MINK = MINK (Homo sapiens, UniProt Q8N4C8)
# PAK3 = target: T1, PAK3 (Homo sapiens, UniProt O75914)
# T1 construct: purchased Eurofins DiscoverX Corporation (KINOMEscan)
# [1] = target: T2, RSK2(Kin.Dom.2-C-terminal) (Homo sapiens, UniProt P51812)
# T2 construct: RSK2(Kin.Dom.2-C-terminal); purchased Eurofins DiscoverX Corporation (KINOMEscan screening service)
# PRKR = PRKR (Homo sapiens, UniProt P19525)
# PRKG2 = PRKG2 (Homo sapiens, UniProt Q13237)
# AURKC = AURKC (Homo sapiens, UniProt Q9UQB9)
# [2] = target: T3, ABL1(F317I)-phosphorylated (Homo sapiens, UniProt P00519, F317I)
# T3 construct: purchased Eurofins DiscoverX Corporation
# MARK4 = MARK4 (Homo sapiens, UniProt Q96L34)
# TESK1 = target: T4, TESK1 (Homo sapiens, UniProt Q15569)
# T4 construct: purchased Eurofins DiscoverX Corporation
# p38-alpha = target: T5, p38-alpha (Homo sapiens, UniProt Q16539)
# T5 construct: purchased Eurofins DiscoverX Corporation (KINOMEscan)
# EGFR = EGFR (Homo sapiens, UniProt P00533)
# IRAK4 = IRAK4 (Homo sapiens, UniProt Q9NWZ3)
# NEK7 = target: T6, NEK7 (Homo sapiens, UniProt Q8TDX7)
# T6 construct: purchased Eurofins DiscoverX Corporation (KINOMEscan)
# CSNK1G3 = CSNK1G3 (Homo sapiens, UniProt Q9Y6M4)
# CSK = CSK (Homo sapiens, UniProt P41240)
# [3] = target: T7, ABL1(F317L)-nonphosphorylated (Homo sapiens, UniProt P00519, F317L)
# T7 construct: purchased Eurofins DiscoverX Corporation
# PRP4 = PRP4 (Homo sapiens, UniProt Q13523)
# CSNK1G2 = CSNK1G2 (Homo sapiens, UniProt P78368)
# MLK1 = MLK1 (Homo sapiens, UniProt P80192)
# DYRK1B = DYRK1B (Homo sapiens, UniProt Q9Y463)
# MAP4K2 = MAP4K2 (Homo sapiens, UniProt Q12851)
# ERK1 = target: T8, ERK1 (Homo sapiens, UniProt P27361)
# T8 construct: purchased Eurofins DiscoverX Corporation
# GRK7 = target: T9, GRK7 (Homo sapiens, UniProt Q8WTQ7)
# T9 construct: purchased Eurofins DiscoverX Corporation
# IKK-epsilon = IKK-epsilon (Homo sapiens, UniProt Q14164)
# PRKX = PRKX (Homo sapiens, UniProt P51817)
# CDK11 = CDK11 (Homo sapiens, UniProt Q9BWU1)
# PIK3CA(M1043I) = PIK3CA(M1043I) (Homo sapiens, UniProt P42336, M1043I)
# MET(M1250T) = MET(M1250T) (Homo sapiens, UniProt P08581, M1250T)
# PIK3CA = PIK3CA (Homo sapiens, UniProt P42336)
# MYO3B = MYO3B (Homo sapiens, UniProt Q8WXR4)
# BLK = BLK (Homo sapiens, UniProt P51451)
# [4] = target: JAK1(JH1domain-catalytic) (Homo sapiens, UniProt P23458)
# PKN2 = PKN2 (Homo sapiens, UniProt Q16513)
# FES = target: T10, FES (Homo sapiens, UniProt P07332)
# T10 construct: purchased Eurofins DiscoverX Corporation
# PRKCD = PRKCD (Homo sapiens, UniProt Q05655)
# ROCK2 = target: T11, ROCK2 (Homo sapiens, UniProt O75116)
# T11 construct: purchased Eurofins DiscoverX Corporation (KINOMEscan screening service)
# TSSK3 = target: T12, TSSK3 (Homo sapiens, UniProt Q96PN8)
# T12 construct: purchased Eurofins DiscoverX Corporation
# CSNK2A1 = CSNK2A1 (Homo sapiens, UniProt P68400)
# MLK2 = MLK2 (Homo sapiens, UniProt Q02779)
# Chain of MLK2 (Q02779 whole entry): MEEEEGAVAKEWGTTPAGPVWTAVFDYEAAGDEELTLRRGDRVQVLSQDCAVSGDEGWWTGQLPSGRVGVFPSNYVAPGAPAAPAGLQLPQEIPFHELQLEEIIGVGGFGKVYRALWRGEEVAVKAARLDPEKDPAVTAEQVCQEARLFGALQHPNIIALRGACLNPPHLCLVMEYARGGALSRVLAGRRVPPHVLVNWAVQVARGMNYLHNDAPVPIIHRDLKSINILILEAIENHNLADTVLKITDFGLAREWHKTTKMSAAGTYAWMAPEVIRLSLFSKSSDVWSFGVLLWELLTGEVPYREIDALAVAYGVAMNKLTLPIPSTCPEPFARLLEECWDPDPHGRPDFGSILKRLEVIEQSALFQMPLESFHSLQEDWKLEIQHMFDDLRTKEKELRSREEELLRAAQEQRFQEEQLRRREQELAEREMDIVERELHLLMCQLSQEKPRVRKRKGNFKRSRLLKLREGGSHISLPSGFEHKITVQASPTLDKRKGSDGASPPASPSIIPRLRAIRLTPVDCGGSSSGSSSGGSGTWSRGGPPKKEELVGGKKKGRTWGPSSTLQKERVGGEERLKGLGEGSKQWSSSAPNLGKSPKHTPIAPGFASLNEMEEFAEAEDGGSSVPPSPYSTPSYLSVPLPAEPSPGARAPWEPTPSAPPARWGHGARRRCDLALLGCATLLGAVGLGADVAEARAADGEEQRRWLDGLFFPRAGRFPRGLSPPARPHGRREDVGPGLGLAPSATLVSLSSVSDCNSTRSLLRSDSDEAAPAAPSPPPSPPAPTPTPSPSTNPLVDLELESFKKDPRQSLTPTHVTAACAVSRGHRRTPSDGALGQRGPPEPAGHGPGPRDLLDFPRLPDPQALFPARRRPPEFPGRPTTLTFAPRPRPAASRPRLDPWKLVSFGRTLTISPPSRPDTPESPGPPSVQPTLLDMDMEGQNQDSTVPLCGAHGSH
# T2 sequence (P51812 422-679 limits assumed): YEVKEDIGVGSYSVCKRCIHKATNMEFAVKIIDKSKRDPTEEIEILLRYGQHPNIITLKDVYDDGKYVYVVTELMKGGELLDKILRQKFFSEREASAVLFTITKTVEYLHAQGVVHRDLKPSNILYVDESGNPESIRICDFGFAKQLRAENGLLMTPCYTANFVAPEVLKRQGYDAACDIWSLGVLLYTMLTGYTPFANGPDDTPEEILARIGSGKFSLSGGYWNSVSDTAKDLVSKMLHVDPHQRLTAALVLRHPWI
# Chain of PRKR (P19525 whole entry): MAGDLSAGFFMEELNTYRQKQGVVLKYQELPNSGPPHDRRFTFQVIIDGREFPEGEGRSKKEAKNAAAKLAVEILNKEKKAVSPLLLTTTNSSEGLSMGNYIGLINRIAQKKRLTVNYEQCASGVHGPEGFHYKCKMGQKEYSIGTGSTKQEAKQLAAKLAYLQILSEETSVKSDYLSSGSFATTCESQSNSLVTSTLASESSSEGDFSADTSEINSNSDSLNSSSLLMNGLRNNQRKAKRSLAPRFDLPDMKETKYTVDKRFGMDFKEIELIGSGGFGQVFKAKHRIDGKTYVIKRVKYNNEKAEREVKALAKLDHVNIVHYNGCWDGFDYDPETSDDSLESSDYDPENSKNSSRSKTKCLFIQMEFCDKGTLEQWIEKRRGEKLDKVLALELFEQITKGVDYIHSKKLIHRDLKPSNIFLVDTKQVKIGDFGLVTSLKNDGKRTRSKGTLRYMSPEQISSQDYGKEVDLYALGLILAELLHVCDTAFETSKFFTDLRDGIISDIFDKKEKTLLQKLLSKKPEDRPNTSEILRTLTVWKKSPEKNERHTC
# Chain of IRAK4 (Q9NWZ3 whole entry): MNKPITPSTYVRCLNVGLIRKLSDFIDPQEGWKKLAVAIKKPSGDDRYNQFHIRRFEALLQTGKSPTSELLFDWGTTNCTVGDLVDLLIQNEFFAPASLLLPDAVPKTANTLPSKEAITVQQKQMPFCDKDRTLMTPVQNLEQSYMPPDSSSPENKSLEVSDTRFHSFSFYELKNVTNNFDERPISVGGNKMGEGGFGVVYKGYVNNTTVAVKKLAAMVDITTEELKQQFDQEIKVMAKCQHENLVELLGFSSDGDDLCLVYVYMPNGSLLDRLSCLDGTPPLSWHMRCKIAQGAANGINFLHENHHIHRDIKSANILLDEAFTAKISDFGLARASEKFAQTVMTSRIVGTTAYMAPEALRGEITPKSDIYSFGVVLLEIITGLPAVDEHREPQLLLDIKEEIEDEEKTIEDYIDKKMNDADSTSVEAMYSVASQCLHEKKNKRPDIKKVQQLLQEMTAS
# Chain of PRKCD (Q05655 whole entry): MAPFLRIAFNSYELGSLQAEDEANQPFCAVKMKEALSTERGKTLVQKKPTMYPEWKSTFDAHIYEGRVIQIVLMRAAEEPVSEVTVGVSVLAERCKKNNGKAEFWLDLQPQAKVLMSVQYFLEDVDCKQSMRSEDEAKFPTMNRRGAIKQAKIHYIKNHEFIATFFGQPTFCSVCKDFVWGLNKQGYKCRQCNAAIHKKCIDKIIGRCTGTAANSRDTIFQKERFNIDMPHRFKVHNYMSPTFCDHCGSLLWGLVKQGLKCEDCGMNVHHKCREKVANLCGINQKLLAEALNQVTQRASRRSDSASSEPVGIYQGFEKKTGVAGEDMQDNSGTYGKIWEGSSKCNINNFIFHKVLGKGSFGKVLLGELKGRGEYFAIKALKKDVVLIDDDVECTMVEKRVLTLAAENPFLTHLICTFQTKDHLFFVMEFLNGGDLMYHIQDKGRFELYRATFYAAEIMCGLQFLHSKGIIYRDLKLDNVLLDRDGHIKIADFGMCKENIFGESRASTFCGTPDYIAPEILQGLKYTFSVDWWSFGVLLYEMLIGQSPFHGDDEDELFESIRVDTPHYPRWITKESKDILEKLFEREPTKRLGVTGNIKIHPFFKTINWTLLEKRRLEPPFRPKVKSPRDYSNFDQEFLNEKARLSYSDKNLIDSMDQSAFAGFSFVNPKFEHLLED
# Chain of DYRK1B (Q9Y463 whole entry): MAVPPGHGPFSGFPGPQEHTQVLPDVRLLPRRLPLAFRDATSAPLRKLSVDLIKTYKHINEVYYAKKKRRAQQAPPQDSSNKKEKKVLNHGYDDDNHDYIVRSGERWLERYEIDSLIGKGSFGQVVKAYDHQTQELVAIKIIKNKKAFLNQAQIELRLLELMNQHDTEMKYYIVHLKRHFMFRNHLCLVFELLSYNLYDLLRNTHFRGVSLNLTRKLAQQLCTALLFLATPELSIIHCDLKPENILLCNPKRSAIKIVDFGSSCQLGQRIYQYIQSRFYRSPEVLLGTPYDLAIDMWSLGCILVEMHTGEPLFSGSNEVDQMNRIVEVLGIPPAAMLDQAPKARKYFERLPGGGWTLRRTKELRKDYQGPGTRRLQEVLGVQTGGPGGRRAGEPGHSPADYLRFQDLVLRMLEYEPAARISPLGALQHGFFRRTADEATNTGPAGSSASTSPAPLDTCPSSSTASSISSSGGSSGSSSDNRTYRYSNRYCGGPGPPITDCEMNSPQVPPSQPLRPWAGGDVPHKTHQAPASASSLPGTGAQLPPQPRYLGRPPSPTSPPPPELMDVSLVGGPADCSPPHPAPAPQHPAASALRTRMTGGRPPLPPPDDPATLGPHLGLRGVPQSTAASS
# Chain of MARK4 (Q96L34 whole entry): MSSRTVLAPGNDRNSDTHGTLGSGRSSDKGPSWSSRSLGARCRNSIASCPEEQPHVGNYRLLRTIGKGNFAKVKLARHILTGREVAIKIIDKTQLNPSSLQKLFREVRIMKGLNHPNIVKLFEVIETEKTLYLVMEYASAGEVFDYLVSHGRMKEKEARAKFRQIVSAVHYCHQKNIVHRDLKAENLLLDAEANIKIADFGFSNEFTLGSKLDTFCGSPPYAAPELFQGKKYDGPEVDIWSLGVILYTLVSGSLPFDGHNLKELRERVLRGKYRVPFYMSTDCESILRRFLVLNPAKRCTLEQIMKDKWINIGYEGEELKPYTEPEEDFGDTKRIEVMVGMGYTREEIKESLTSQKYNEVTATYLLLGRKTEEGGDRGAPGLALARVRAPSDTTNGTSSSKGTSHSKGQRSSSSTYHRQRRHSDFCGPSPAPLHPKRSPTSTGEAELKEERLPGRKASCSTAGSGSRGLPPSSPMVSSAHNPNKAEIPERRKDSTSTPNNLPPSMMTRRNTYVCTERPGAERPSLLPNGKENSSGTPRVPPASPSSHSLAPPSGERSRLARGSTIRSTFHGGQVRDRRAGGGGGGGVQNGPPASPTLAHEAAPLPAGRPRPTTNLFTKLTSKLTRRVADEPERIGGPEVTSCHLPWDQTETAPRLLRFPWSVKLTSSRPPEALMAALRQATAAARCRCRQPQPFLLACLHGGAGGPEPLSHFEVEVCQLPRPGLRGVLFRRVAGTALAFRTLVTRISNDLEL
# T8 sequence (P27361 whole entry): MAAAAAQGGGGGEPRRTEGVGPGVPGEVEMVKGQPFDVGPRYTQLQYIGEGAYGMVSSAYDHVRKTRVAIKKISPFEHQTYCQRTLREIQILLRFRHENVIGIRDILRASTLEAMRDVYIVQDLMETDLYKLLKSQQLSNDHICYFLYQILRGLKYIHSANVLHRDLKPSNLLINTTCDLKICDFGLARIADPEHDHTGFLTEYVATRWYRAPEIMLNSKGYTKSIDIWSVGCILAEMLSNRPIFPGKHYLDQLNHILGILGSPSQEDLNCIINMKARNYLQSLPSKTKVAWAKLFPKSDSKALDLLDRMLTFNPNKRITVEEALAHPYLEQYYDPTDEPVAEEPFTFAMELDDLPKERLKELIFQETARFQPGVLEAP
# T6 sequence (Q8TDX7 whole entry): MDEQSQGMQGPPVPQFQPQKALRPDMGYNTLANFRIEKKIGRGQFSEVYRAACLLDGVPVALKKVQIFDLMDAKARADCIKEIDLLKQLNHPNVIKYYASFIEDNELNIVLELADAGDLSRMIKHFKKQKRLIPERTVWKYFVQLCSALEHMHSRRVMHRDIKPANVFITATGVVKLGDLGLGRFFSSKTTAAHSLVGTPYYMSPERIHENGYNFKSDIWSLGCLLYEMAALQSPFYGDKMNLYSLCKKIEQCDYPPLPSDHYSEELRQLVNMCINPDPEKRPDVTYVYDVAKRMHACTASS
compound,measurement,setting,value
"C=CC(=O)Nc1ccc(OC)c(Nc2cc(-c3[nH]c(CC)nc3-c3cccc(NC(=O)c4cccc5c4NC(=O)c4ccccc4N5)c3)ccn2)c1 [Compound 4, N-(3-(5-(2-((5-Acrylamido-2-methoxyphenyl)amino)pyridin-4-yl)-2-ethyl-1H-imidazol-4-yl)phenyl)-11-oxo-10,11-dihydro-5H-dibenzo[b,e][1,4]diazepine-9-carboxamide]",remaining binding at 1 µM,MINK,10%
same,remaining binding at 1 µM,PAK3,70%
same,remaining binding at 1 µM,[1],100%
same,remaining binding at 1 µM,PRKR,87%
same,remaining binding at 1 µM,PRKG2,62%
same,remaining binding at 1 µM,AURKC,100%
same,remaining binding at 1 µM,[2],84%
same,remaining binding at 1 µM,MARK4,92%
same,remaining binding at 1 µM,TESK1,94%
same,remaining binding at 1 µM,p38-alpha,46%
same,remaining binding at 1 µM,EGFR,17%
same,remaining binding at 1 µM,IRAK4,43%
same,remaining binding at 1 µM,NEK7,86%
same,remaining binding at 1 µM,CSNK1G3,98%
same,remaining binding at 1 µM,CSK,14%
same,remaining binding at 1 µM,[3],37%
same,remaining binding at 1 µM,PRP4,46%
same,remaining binding at 1 µM,CSNK1G2,91%
same,remaining binding at 1 µM,MLK1,86%
same,remaining binding at 1 µM,DYRK1B,88%
same,remaining binding at 1 µM,MAP4K2,36%
same,remaining binding at 1 µM,ERK1,99%
same,remaining binding at 1 µM,GRK7,99%
same,remaining binding at 1 µM,IKK-epsilon,100%
same,remaining binding at 1 µM,PRKX,100%
same,remaining binding at 1 µM,CDK11,100%
same,remaining binding at 1 µM,PIK3CA(M1043I),55%
same,remaining binding at 1 µM,MET(M1250T),89%
same,remaining binding at 1 µM,PIK3CA,70%
same,remaining binding at 1 µM,MYO3B,31%
same,remaining binding at 1 µM,BLK,1.7%
same,remaining binding at 1 µM,[4],91%
same,remaining binding at 1 µM,PKN2,100%
same,remaining binding at 1 µM,FES,28%
same,remaining binding at 1 µM,PRKCD,55%
same,remaining binding at 1 µM,ROCK2,94%
same,remaining binding at 1 µM,TSSK3,100%
same,remaining binding at 1 µM,CSNK2A1,100%
same,remaining binding at 1 µM,MLK2,97%

# Reference: US20260224588A1, “BENZODIAZEPINONE-DERIVED INHIBITORS OF EGFR AND HER2” (The Research Foundation for the State University of New York, priority 2023, published 2026)
